In US11819514B2, “Use of oligosaccharide riclinoctaose in preparation of drug for treating and/or preventing ischemia-reperfusion injury (IRI)” (Nanjing Southern Element Biotechnology Co., Ltd., priority 2021, dated 2023):
“Also recorded” adds a separate entry of the source.

Legend:
male C57/BL6J mice [1] = test: HIRI mouse model: serum enzyme activity assay (ALT, AST, LDH); format: in vivo; conditions: i.p. 20 mg/mL (LRO) and 40 mg/mL (HRO) 4 h to 6 h before surgery, 30 min ischemia, 6 h reperfusion, vs model group
Experimental: (§1) The experimental animals were male C57/BL6J mice aged 6 to 8 weeks and weighed 22 g to 26 g. The mice were housed under standard experimental conditions with a 12-hour light-12-hour dark cycle with free access to water and food. The mice were anesthetized with isoflurane, the abdomen was operated on, and the blood supply to middle and left lobes of the liver was blocked with non-invasive hemostatic clips, resulting in 70% hepatic ischemia; after 30 min of ischemia, the clips were removed, and samples were collected to measure biochemical parameters after reperfusion for 6 h.
(§2) The mice were administered by intraperitoneal injection and randomly divided into four groups; a first group was a sham-operation group (sham), the animals in the sham-operation group received the same laparotomy without vascular clip occlusion; a second group was a model group (IR); a third group was a low-dosage group (LRO), with 20 mg/mL of the oligosaccharide riclinoctaose injected intraperitoneally about 4 h to 6 h before surgery; and a fourth group was a high-dosage group (HRO), with 40 mg/mL of the oligosaccharide riclinoctaose injected intraperitoneally about 4 h to 6 h before surgery. The oligosaccharide riclinoctaose drug was dissolved in a 0.9% normal saline.
Whole blood was collected, allowed to coagulate naturally at a room temperature, centrifuged at 2,000 r/min for 10 min, and a supernatant was collected for the determination of ALT, AST and LDH enzyme activities. The activities of AST, ALT and LDH were determined by an enzyme colorimetric quantitative analysis method, according to operation steps in kit instructions, and finally concentrations were determined by colorimetry at a wavelength of 505 nm or 440 nm.
(§3) Comparisons between multiple groups were statistically analyzed using a One-way ANOVA statistical method. P<0.05 was considered to have a significant effect.

male C57/BL6J mice [2] = test: HIRI mouse model: histological analysis of liver (H&E); format: in vivo
Experimental: as §1
as §2, with “saline. […]” for “saline.”

male C57/BL6J mice [3] = test: RIRI mouse model: plasma biochemical indicators (BUN, Creatinine, LDH); format: in vivo; conditions: i.p. 20 or 40 mg/mL 4 h to 6 h before surgery, 30 min ischemia, 24 h reperfusion
Excerpt: The experimental animals were male C57/BL6J mice aged 6 to 8 weeks and weighed 22 g to 26 g; the mice were anesthetized with isoflurane, and the abdomen was operated on, and after the righting reflex disappeared, the mice were placed in a prone position on a mouse dissection table and fixed; under sterile conditions, the abdominal cavity was opened along a 1.5 cm longitudinal incision on both dorsal sides, the muscles were bluntly separated, and the renal pedicles on both sides were exposed; the blood flow was blocked with a non-invasive vascular clip, and the kidneys turned from red to dark purple, indicating successful ischemia. After 30 min of ischemia, the arterial clips were released, and the abdominal cavity was closed after the kidneys were restored to perfusion; after 24 h, samples were collected to measure biochemical indicators, and an RIRI model was established. […]
Whole blood was collected, allowed to coagulate naturally at a room temperature, centrifuged at 2,000 r/min for 10 min, and a supernatant was collected for the determination of BUN, Creatinine, and LDH. The plasma BUN, Creatinine and LDH concentrations of mice in each group were analyzed according to instructions of the plasma BUN, Creatinine, and LDH detection kits, followed by operation steps in kit instructions, and finally concentrations were determined by colorimetry at a wavelength of 510 nm or 440 nm.
Comparisons between multiple groups were statistically analyzed using a One-way ANOVA statistical method. […]

male C57/BL6J mice [4] = test: RIRI mouse model: histological analysis of kidney (H&E, PAS); format: in vivo; conditions: vs model group
Excerpt: The experimental animals were male C57/BL6J mice aged 6 to 8 weeks and weighed 22 g to 26 g; the mice were anesthetized with isoflurane, and the abdomen was operated on, and after the righting reflex disappeared, the mice were placed in a prone position on a mouse dissection table and fixed; under sterile conditions, the abdominal cavity was opened along a 1.5 cm longitudinal incision on both dorsal sides, the muscles were bluntly separated, and the renal pedicles on both sides were exposed; the blood flow was blocked with a non-invasive vascular clip, and the kidneys turned from red to dark purple, indicating successful ischemia. After 30 min of ischemia, the arterial clips were released, and the abdominal cavity was closed after the kidneys were restored to perfusion; after 24 h, samples were collected to measure biochemical indicators, and an RIRI model was established.
as §2
Histomorphological changes in mouse kidneys were analyzed by H&E staining and PAS staining. The resected kidney tissue was immediately fixated with buffered 4% paraformaldehyde (in a PBS buffer) for histological analysis, embedded in paraffin, and sections were stained with by H&E or PAS. The necrosis and structural damages of nephrocytes were observed by a microscope.

male C57/BL6J mice [5] = test: CIRI (MCAO) mouse model: neurofunctional scoring (mNSS, Longa); format: in vivo
Excerpt: The experimental animals were male C57/BL6J mice aged 6 to 8 weeks and weighed 22 g to 26 g. Mice were anesthetized with isoflurane and placed on a supine heating pad. The skin was disinfected with iodine and 75% ethanol. A midline neck incision is made to expose the carotid artery […]. An external carotid artery (ECA) was isolated and occluded with two knots. An internal carotid artery (ICA) was isolated, and the MCA and ICA were clamped with microvascular clips. A small hole was cut in the ECA between the knot and a bifurcation point. A silicone rubber-coated, 30-mm-long, and 0.11-mm-diameter middle cerebral artery occlusion (MCAO) tether was introduced into the ICA. The artery was opened while sutures were inserted to block the blood vessel. A third knot on the ICA was closed and the suture was secured in a proper place. The mouse abdominal cavity was sutured, and the mice were placed in a heated cage for 30 min, and the wound was closed using small suture clips. The third knot was loosened, the filament was removed, and reperfusion was conducted for 24 h. The skin was closed and the mice were returned to individual cages.
as §2, with “neck incision” for “laparotomy”, “suture blockage;” for “clip occlusion;”
Neurofunctional scoring: the neurobehavioral functions were assessed using mNSS and Longa scores. The mNSS assessed neurological deficits through motor, reflex, sensory, and balance tests. Scores ranged from 0 (indicating no neurological deficit) to 18 (indicating the most severely-injured animal). The Longa score was determined as follows: 0 points, no neurological deficit; 1 point, the animals were unable to fully extend the contralateral forelimbs; 2 points, there was a tail scratching phenomenon when walking (circling to the opposite side); 3 points, a standing posture was unstable, falling to the opposite side; and 4 points, there was no spontaneous walking and loss of consciousness. A score of 0 to 2 was classified as mild nerve injury, while a score of 3 to 4 was classified as severe nerve injury.
as §3

[6] = cited from earlier work
intestinal microflora = conditions: cited from earlier work
[7] = i.p. injection before surgery, 30 min occlusion, 24 h reperfusion, vs model group

Substance: D-Glcp(4,6-pyr)-β-(1→3)-D-Glcp-β-(1→3)-D-Glcp-β-(1→6)-D-Glcp-β-(1→6)-D-Glcp-β-(1→4)-D-Glcp-β-(1→4)-D-Glcp-β-(1→3)-D-Galp [oligosaccharide riclinoctaose]
- ALT activity in serum (male C57/BL6J mice [1]): decrease the AST, ALT and LDH values in a dosage-dependent manner; also recorded: significant reduction of ALT, AST, LDH activities in serum
- AST activity in serum (male C57/BL6J mice [1]): decrease the AST, ALT and LDH values in a dosage-dependent manner; also recorded: significant reduction of ALT, AST, LDH activities in serum
- LDH activity in serum (male C57/BL6J mice [1]): decrease the AST, ALT and LDH values in a dosage-dependent manner; also recorded: significant reduction of ALT, AST, LDH activities in serum
- necrotic area of liver parenchyma cells (H&E staining) (male C57/BL6J mice [2]; i.p. 20 and 40 mg/mL before surgery, 6 h reperfusion): reduction of a necrotic area of liver parenchyma cells
- liver tissue morphology / degree of damages (H&E staining) (male C57/BL6J mice [2]; treatment groups compared with sham-operation and model groups): the treatment groups and the sham-operation group have the closest tissue morphology, indicating a lesser degree of damages
- plasma BUN (male C57/BL6J mice [3]): significantly decreased
- plasma Creatinine (male C57/BL6J mice [3]): significantly decreased
- plasma LDH (male C57/BL6J mice [3]): significantly decreased
- area of cell necrosis in kidney (H&E staining) (male C57/BL6J mice [4]): the area of cell necrosis is reduced
- brush border shedding of renal tubule cells and degree of cell necrosis (PAS staining) (male C57/BL6J mice [4]): significantly reduced
- infiltration of inflammatory factors in kidney (H&E staining) (male C57/BL6J mice [4]): the infiltration of inflammatory factors is also reduced
- neurobehaviour, low-dosage group (LRO) (male C57/BL6J mice [5]; 20 mg/mL i.p. 4 h to 6 h before surgery): cannot fully extend the contralateral forelimbs, the mice are not as severe as those in the model group
- neurobehaviour, high-dosage group (HRO) (male C57/BL6J mice [5]; 40 mg/mL i.p. 4 h to 6 h before surgery): behave similarly to those in the sham-operation group (sham) without neurological deficits
- neurological deficit by Longa score (male C57/BL6J mice [5]; [7]): the neurological deficit of mice can be significantly reduced
- neurological deficit by mNSS (male C57/BL6J mice [5]; [7]): the neurological deficit of mice can be significantly reduced
- water solubility [6]: desirable water solubility
- effect on intestinal microflora as a prebiotic (intestinal microflora): significantly improve the intestinal microflora
